Assay results: patent US9150557B1, “Compositions and methods for the treatment of hyperglycemia” (CELLIX BIO PRIVATE LIMITED, priority 2014, dated 2015)

Assay: Water solubility: distilled water added to a weighed amount until a clear solution is obtained
Format: physicochemical
Details: for solubility: thermodynamic from solid, distilled water, weight in mg divided by volume of clear solution in mL
Procedure: Measurement of the water solubility of the test compounds is accomplished by using methods well known to those skilled in the art. Specifically, to a weighed amount of the test compound of the example compound Formula I (1-3) distilled water was added in small proportions until a clear solution was obtained. The total volume of the solution is measured. The water solubility is calculated by dividing the weight of the salt, in milligrams (mg), by the volume of the solution, in mL. […] The compound of Formula I (1-3) is therefore, at least 260 times more soluble in water than EPA itself. This is a clear indication of an unexpectedly high degree of bioavailability of the compositions of the invention. Highly water soluble medicinal preparations, when administered orally, result in efficient absorption from the gastrointestinal tract in to systemic circulation. Furthermore, water soluble preparations are especially suitable for parenteral administration.

| SMILES | times more soluble in water than EPA (ratio of water solubility versus eicosapentaenoic acid (EPA)) | solubility [mg/mL] |
| --- | --- | --- |
| CC/C=C\C/C=C\C/C=C\C/C=C\C/C=C\CCCC(=O)OCCCN1CC(O)[C@@H](O)[C@H](O)C1CO (stereo partly drawn) [Formula I (1-3)] | at least 260 times | 68.6 |
| CC/C=C\C/C=C\C/C=C\C/C=C\C/C=C\CCCC(=O)O [EPA, Eicosapentaenoic acid, reference compound] | – | < 0.2 |
